# According to patent US11802110B2, “2-amino-N-(arylsulfinyl)-acetamide compounds as inhibitors of bacterial aminoacyl-tRNA synthetase” (priority 2016, dated 2023):
# Experiments:
# [1] = test system: Klebsiella pneumoniae ATCC 700603; experiment: Study 4 - MIC by broth micro-dilution (CLSI); format: cell-based; details: Klebsiella pneumoniae, ATCC700603
# Method: (§1) Minimum Inhibitory Concentrations (MICs) were determined by the broth micro-dilution method performed according to Clinical Laboratory Standards Institute guidelines. For testing, 5 mg/mL DMSO solutions were prepared by dissolving solids in DMSO. Standard antibiotics were prepared according to CLSI guidelines as 5 mg/mL stock solutions. Upon DMSO stock solutions preparation, the working solutions in MH media were prepared by adding 38.4 μL of stock solution to 1461.6 μL of MH media. Out of these working solutions 100 μL were transferred to wells in the third column of 96-well assay plates. Assay plates were previously filled with 50 μL of MH media in all wells except for the wells in the third column. Upon compounds and antibiotics addition, 50 μL was transferred from the third to the fourth column, then from the fourth to the fifth and so on.
# (§2) MIC value was determined by visual inspection of bacterial growth within 96-well plates. The first column in which there was no visible growth of bacteria was determined as MIC value for compound or antibiotic tested in that particular row. ATCC strains were used as reference strains for which there is a determined value of MIC values for standard antibiotics. The assay is considered valid when MIC values for standard antibiotics are within CLSI designated range for ATCC strain tested.
# [2] = test system: Escherichia coli ATCC 25922; experiment: Study 4 - MIC by broth micro-dilution (CLSI); format: cell-based; details: Escherichia coli, ATCC25922
# Method: as §1, §2
# [3] = test system: Pseudomonas aeruginosa ATCC 27853; experiment: Study 4 - MIC by broth micro-dilution (CLSI); format: cell-based; details: Pseudomonas aeruginosa, ATCC27853
# Method: as §1, §2
# [4] = test system: Acinetobacter baumannii B1931 clinical isolate; experiment: Study 4 - MIC by broth micro-dilution (CLSI); format: cell-based; details: Acinetobacter baumannii
# Method: as §1, §2
# [5] = test system: Enterobacter cloacae B1966 clinical isolate; experiment: Study 4 - MIC by broth micro-dilution (CLSI); format: cell-based; details: Enterobacter cloacae
# Method: as §1, §2
# [6] = test system: Haemophilus influenzae ATCC 49247; experiment: Study 4 - MIC by broth micro-dilution (CLSI); format: cell-based; details: Haemophilus influenzae, ATCC49247; G = H. influenzae ATCC 49247; read-out: MIC
# Method: as §1, §2
# [7] = Human cell viability (cytotoxicity), ATP levels by CellTiter-Glo; format: cell-based; details: HepG2 cells (ATCC HB-8065), 24 hours incubation, read-out: IC50 (μg/mL), Cytotoxicity in HepG2 ATCC HB-8065 Cell Line
# Method: Compounds were assessed for potential non-specific cytotoxic effects against a human hepatic cell line (HepG2 ATCC HB-8065). 96-well plates were seeded with HepG2 cells in concentration of 15,000 cells per well in 100 μL of MEM growth media completed with 1% NEAA and 1% sodium pyruvate. Border wells were filled with 100 μL of sterile PBS. Two days upon cells incubation, the compounds were added. Compound dilutions were prepared in 96-well V-bottom plate in pure DMSO. Growth media from 5 plates were aspirated and replaced with 98.7 μL of fresh growth media. 1.28 μL of compounds prepared in V-bottom plates were transferred with multichannel pipette into test plates (78.1× dilution). Final DMSO concentration was 1.28% per well. In control wells, 1.28 μL of DMSO was added in 98.7 μL of media. Compounds were tested in duplicates. Cells were incubated with compounds for 24 hours when cell viability was assessed by measuring ATP levels. ATP levels were measured by adding 50 μL of CellTiter-Glo reagent to each well and after 5 minutes of incubation luminescence was measured with SpectraMax i3. The potential effect of tested compounds on cell viability was determined by comparing the signal obtained in presence of different concentrations of the compounds with those obtained in the presence of DMSO only. The potential effects were then calculated and presented as IC50 values (μg/mL).
# [8] = target: E. Coli LeuRS (Escherichia coli (strain K12), UniProt P07813); experiment: Study 2 - Isothermal titration calorimetry (ITC); format: binding; details: 25° C., pH 7.5, mean ± SD
# Method: Escherichia coli BL21(DE3) cells transformed with plasmid pQE-60 containing the open-reading frame sequence of one targeted aaRS (i.e., LeuRS) were induced with 1 mM IPTG (isopropyl β-D-1-thiogalactopyranoside) for 3 hours at 37° C. Bacterial cells were harvested and lysed with 20 mM HEPES (4-(2-hydroxyethyl)-1-piperazinylethane-sulfonic acid) (pH 7.5), 300 mM NaCl, 15 mM imidazole and 1 mM DTT (1,4-dithio-D-threitol). The pathogenic aaRS was first purified by nickel affinity standard chromatography. The eluted protein was concentrated and then further purified by gel filtration using 50 mM HEPES (pH 7.5), 150 mM NaCl buffer.
# ITC studies were carried out using a Microcal ITC200 instrument (GE Healthcare). Protein concentration was determined by spectrophotometry by measuring the absorbance at 280 nm using a theoretical molar extinction coefficient of 169,140 M^−1cm^−1. Ligand stock solutions were prepared in DMSO at 62.5 mM concentration. The titrations were performed at 25° C. with 7.5-100 μM E. Coli LeuRS in 50 mM HEPES, 150 mM NaCl, pH 7.5 buffer containing 1% DMSO (v/v). The protein solution in the 280 μL sample cell was titrated with the inhibitor solution (diluted to 75-3000 μM in the same buffer as the protein) using 1-2 μL injections every 120-140 seconds. All titrations were repeated at least two times. To correct for heats of dilution and mixing, the final baseline consisting of small peaks of identical size at the end of each experiment was subtracted. The experimental data were fitted to a theoretical titration curve (one site model) using MicroCal Origin 7 SR4 software.
# Note that Compounds R-4.1 and S-4.1 (in Table 15, below) correspond to Compounds V-i and V-ii (in Tables 13 and 14, above), respectively.
# [9] = test system: Escherichia coli ATCC 25922 TolC deficient mutant (E. coli EFFLUX del); experiment: microbe, parasite or virus in culture; format: cell-based; details: Escherichia coli, ATCC25922
# Method: as §1, §2
# E. Coli LeuRS, sequence (P07813 whole entry): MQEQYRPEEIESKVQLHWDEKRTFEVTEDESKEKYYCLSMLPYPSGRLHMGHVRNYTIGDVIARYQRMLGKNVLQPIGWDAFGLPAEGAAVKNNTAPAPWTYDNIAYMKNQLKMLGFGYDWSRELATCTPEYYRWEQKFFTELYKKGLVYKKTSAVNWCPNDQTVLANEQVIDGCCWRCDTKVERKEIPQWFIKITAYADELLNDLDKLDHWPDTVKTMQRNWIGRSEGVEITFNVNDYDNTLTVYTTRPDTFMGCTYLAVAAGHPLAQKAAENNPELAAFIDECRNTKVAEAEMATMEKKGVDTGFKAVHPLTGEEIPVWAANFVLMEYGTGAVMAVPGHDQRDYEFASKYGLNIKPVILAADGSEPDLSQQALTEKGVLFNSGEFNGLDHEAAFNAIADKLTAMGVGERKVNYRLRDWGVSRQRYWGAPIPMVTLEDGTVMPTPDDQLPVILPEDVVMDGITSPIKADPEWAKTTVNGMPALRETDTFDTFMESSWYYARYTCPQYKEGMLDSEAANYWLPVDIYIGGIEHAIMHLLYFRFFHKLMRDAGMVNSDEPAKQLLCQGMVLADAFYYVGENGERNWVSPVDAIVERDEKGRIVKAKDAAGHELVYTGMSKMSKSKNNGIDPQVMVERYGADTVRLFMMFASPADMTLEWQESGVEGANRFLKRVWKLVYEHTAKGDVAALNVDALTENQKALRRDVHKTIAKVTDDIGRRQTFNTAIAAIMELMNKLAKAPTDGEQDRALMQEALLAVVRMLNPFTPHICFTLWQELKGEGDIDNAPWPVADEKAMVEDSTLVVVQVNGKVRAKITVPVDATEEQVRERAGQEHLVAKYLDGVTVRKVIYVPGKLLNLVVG
SMILES,MIC [1] [µg/mL],MIC [2] [µg/mL],MIC [3] [µg/mL],MIC [4] [µg/mL],MIC [5] [µg/mL],MIC [6] [µg/mL],IC50 at 24 h [7] [µg/mL],Kd [8] [µM],ΔG [8] [kcal/mol],ΔH [8] [kcal/mol],MIC [9] [µg/mL]
CC(C)CC(N)C(=O)N[S+]([O-])c1cccc(Br)c1 (stereo not drawn) [4.15],16,8,64,64,32,8,> 64,0.0106 ± 0.00039,-10.88 ± 0.03,-10.74 ± 0.16,
CC(C)CC(N)C(=O)N[S+]([O-])c1cccc(C#N)c1 (stereo not drawn) [4.19],4,2,> 64,64,8,8,> 64,0.00335 ± 0.00048,-11.56 ± 0.09,-8.49 ± 0.38,
COCc1cccc([S+]([O-])NC(=O)C(N)CC(C)C)c1 (stereo not drawn) [4.23],,,,,,,,0.0175 ± 0.0011,-10.58 ± 0.03,-7.06 ± 0.75,
CC(C)CC(N)C(=O)N[S+]([O-])c1cccc(-c2ccn(C)n2)c1 (stereo not drawn) [4.26],> 64,64,> 64,> 64,> 64,> 64,> 64,,,,64
CC(C)CC(N)C(=O)N[S+]([O-])c1ccc(C(C)(C)C)cc1 (stereo not drawn) [4.28],,,,,,,> 64,,,,
CC(C)CC(N)C(=O)N[S+]([O-])c1ccccc1C#N (stereo not drawn) [4.30],32,16,32,8,32,8,32.5,,,,16
CC(C)CC(N)C(=O)N[S+]([O-])c1cc(Cl)cc(Cl)c1 (stereo not drawn) [4.36],> 64,64,> 64,> 64,> 64,> 64,44,,,,64
